From patent US20040266885A1, “Wood preservative compositions” (priority 2001, published 2004) come the findings set out here.

Molecules are shown by their SMILES.

The test system of this assay is Macrotermes natalensis. Briefly: Field exposure of TBBA treated timber samples to an active termite population (based on EN 117). For highest termite attack score out of 3 replicates: key: Score 0: No attack; Score 1: Attempted attack; Score 2: Slight attack; Score 3: Average attack; Score 4: Strong attack. It is filed as in vivo. The note with it: ethanol carrier, 54 days field exposure; for Mean Termite Attack Score (0-4): SD in parenthesis, 3 replicates. The source says:
The termiticidal and/or termite repellency effect of TBBA was examined by field exposure of TBBA treated timber samples to an active population of termites (Macrotermes natalensis). Much of the test detail (timber specimen species, dimensions, preservative impregnation method, scoring system etc.) was based on the European laboratory standard EN 117. This standard is used to define the toxic values of wood preservative formulations against wood destroying termites of the species Reticulitermes santonensis.
The TBBA active was formulated as a solvent-borne product for the test. (ethanol carrier). The precise preservative solutions used were 0% (ethanol only), 1% TBBA, 3% TBBA, 5% TBBA, 7% TBBA and 10% TBBA (all w/w).
AU wood block specimens were of Scots pine sapwood (Pinus sylvestris) with dimensions of 50×25×15 mm. All the test blocks were vacuum impregnated with TBBA according to the method of EN 117. Distribution of the treated blocks in the test was as follows:
TS Specimens: to determine the efficacy of the TBBA active (at different concentrations) against termite attack. SCS Specimens: to confirm absence of a termiticidal effect by the TBBA carrier (ethanol). UCS Specimens: to establish the virulence of the field population of termites.
The termite field site was established in Ginginglovu (Zululand, South Africa). The soil type of the area was a Hutton Bush Veldt soil (sandy loam soil). The site was situated within 10 m of an active termite mound on a raised flat platform of soil established some 5 cm above ground level. The test specimens were randomly positioned on this platform and carefully covered with a waterproof flat plastic roof. This plastic roof was covered with soil to allow temperature and humidity conditions within the test zone to remain representative of the locale. The test specimens were left in-situ for a period of 54 days then scored for termite attack according the system defined in European standard EN 117 as follows:
Score 1: Attempted attack

In the case of `CC(C)(c1cc(Br)c(O)c(Br)c1)c1cc(Br)c(O)c(Br)c1` [TBBA, Tetrabromobisphenol A], the “Mean Termite Attack Score (0-4)” value reads like this: (1% TBBA (w/w)) 0.00 (0.00); (3% TBBA (w/w)) 0.00 (0.00); (5% TBBA (w/w)) 0.00 (0.00); (7% TBBA (w/w)) 0.33 (0.58); (10% TBBA (w/w)) 0.00 (0.00). For the same compound, the “highest termite attack score out of 3 replicates” value runs as follows: (1% TBBA) 0; (3% TBBA) 0; (5% TBBA) 0; (7% TBBA) 1; (10% TBBA) 0.
